Results as given in patent US12351574B2, “Selective ligands for modulation of GIRK channels” (Northeastern University, priority 2018, dated 2025).

How the values were obtained:
GIRK1/4 = biological target: T1, GIRK1/4 (Homo sapiens, UniProt P48544+P48549); test: diC8-PIP2 concentration-response (NPo), inside-out macropatches from Xenopus oocytes, GIRK1/4; type: cell-based; set-up: expressed in transfected cells; host or cells: Xenopus laevis oocytes (cRNA injection); details: in the presence of 10 μM compound; for apparent affinity of GIRK1/4 channels for diC8-PIP2: control 48.4±8 μM
T1 sequence (P48549 1-501): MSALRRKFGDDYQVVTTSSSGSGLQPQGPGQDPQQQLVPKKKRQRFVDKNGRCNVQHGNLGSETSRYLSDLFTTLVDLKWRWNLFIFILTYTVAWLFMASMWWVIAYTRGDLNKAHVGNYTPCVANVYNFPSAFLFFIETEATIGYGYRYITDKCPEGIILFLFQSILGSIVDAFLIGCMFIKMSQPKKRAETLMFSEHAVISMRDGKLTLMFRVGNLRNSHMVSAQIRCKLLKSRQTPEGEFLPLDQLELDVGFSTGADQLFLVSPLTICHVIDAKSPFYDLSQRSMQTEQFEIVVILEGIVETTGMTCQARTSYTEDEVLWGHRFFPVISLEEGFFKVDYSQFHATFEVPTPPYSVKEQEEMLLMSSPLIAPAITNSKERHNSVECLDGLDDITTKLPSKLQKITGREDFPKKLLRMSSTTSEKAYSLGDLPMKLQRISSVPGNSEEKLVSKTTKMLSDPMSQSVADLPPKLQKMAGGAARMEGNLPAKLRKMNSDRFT
T1 sequence (P48544 1-419): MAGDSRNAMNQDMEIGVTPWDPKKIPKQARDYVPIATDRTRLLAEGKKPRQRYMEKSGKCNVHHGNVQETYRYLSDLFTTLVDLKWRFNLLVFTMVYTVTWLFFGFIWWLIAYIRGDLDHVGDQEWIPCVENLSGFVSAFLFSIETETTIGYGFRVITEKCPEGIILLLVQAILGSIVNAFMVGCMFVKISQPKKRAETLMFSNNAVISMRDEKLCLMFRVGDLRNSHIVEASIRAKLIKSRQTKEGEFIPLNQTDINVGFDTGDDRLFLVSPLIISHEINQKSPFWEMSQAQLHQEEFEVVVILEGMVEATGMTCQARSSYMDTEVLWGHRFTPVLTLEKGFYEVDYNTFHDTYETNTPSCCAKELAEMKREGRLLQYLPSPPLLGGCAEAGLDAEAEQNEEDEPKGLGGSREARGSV
Description: The inventors next turned to inside-out macropatches from Xenopus oocytes to compare changes in the PIP2 sensitivity by examining diC8 concentration-responses in the absence and presence of saturating concentrations of each of the activating compounds. […] In FIG. 14B, the control plot overlays the GAT1508 and GAT1521 plots; only ML297 was able to left-shift the sensitivity of GIRK1/4 heteromers to PIP2, while both GAT1508 and GAT1521 were ineffective in changing the sensitivity of these heteromers to PIP2.
Xenopus laevis oocyte expression: Plasmid DNAs of GIRK channel subunits were linearized prior to in vitro transcription. Capped RNAs were transcribed using mMESSAGE mMACHINE T7 Transcription Kit (Thermo Fisher Scientific). Xenopus oocytes were surgically extracted, dissociated and defolliculated by collagenase treatment, and microinjected with 50 nl of a water solution containing 1 ng of each GIRK subunit RNA. For TEVC experiments, oocytes were kept 2 days at 17° C. before recording, while for NPo experiments oocytes were incubated for up to 4 days at 17° C.
Oocyte macropatch studies: Macropatch GIRK channel activity was recorded from devitellinized oocytes under the inside-out mode of standard patch clamp methods using an AM2400 patch clamp amplifier (A-M systems). […] Oocytes were bathed with a solution comprising (in mM): 96 KCl, 5 EGTA, 1 MgATP and 10 HEPES (pH 7.4). Current amplitudes were measured at −80 mV with a sampling rate of 10 kHz. Data were analyzed using WinEDR and Clampfit software (Molecular Devices).

[1] = tested on: fear memories (freezing behavior); test: cued fear conditioning test; type: in vivo, rat; details: for effect on fear acquisition (in words): FIG. 62A
Description: Cued fear conditioning test: On day 1, animals were habituated to the sound attenuating fear conditioning chamber (Kinder Scientific, Poway, CA) for 10 min. Between each animal, the chamber was cleaned with 70% ethanol. On day 2, acquisition of fear was achieved by placing rats back into the chamber for a 120 s acclimation period and then five pairings (120 s inter-trial interval) of the conditioned stimulus (CS; 20 s, 80 dB) followed immediately by the unconditioned shock stimulus (US; 500 ms, 0.8 mA foot shock). On day 3, CS consolidation was assessed by placing the rats back into the chamber with a 120 s acclimation period followed by five presentations of the CS only (20 s, 80 dB) with 120 s inter-trial-intervals. On day 4, extinction was assessed by presenting a 120 s acclimation period followed by 20 trials of the CS (20 s, 80 dB) with 120 s inter-trial-intervals. The same experimenter (SDF) handled the rats during all sessions and was blinded to the treatment. All trials were digitally video-recorded. For this behavioral test and all others, blind scoring was aided by modification of video file names by AIM. Freezing behavior (no visible signs of movement) was scored by SDF during the sound presentation and converted to percentage of total time. The acquisition, expression, extinction and recall of fear memories were assessed in a […] learning paradigm (modified from Johnson, P. L., et al., Pharmacological depletion of serotonin in the basolateral amygdala complex reduces anxiety and disrupts fear conditioning, Pharmacol Biochem Behav, 2015. 138: p. 174-9). Rats were habituated to the sound attenuating fear conditioning chamber on day 1 (Kinder Scientific, Poway, CA) for 10 min. For all experiments, the chamber was cleaned between animals. On day 2 acquisition of fear occurred where the rats were placed back into the chamber and after a 120 s acclimation period received 5 pairings (120 s inter-trial interval) of the conditioned stimulus (CS; 20 s, 80 dB) followed immediately by the unconditioned shock stimulus (US; 500 ms, 0.8 mA foot shock). On day 3 conditioned stimulus (CS) consolidation was assessed by placing the rats back into the chamber with a 120 s acclimation period followed by 5 presentations of the CS only (20 s, 80 dB) separated by 120 s. On day 4 extinction was assessed which consisted of the 120 s acclimation period followed by 20 trials of the CS (20 s, 80 dB) separated by 120 s intervals. On day 5, all animals were assessed for the recall. Animals were placed in the chamber and were presented with 5 tones. The same experimenter handled the rats during all sessions and was blinded to the phenotype. All trials were digitally video-recorded. Freezing behavior (no visible signs of movement) was scored by a blind scorer during the sound presentation and converted to percentage of total time.

[2] = 30 mg/kg, vehicle tone 5 (GAT1521 study), tone 6 (ML297 study)
[3] = 10 or 30 mg/kg i.p., FIGS. 27, 28
[4] = 10 or 30 mg/kg i.p., after acquisition and 30 min prior to consolidation, FIGS. 27, 28

Q: For Cc1cc(NC(=O)Nc2ccc(C)s2)n(-c2ccccc2)n1 [GAT1521, 1-(3-methyl-1-phenyl-1H-pyrazol-5-yl)-3-(5-methylthiophen-2-yl)urea], which “apparent affinity of GIRK1/4 channels for diC8-PIP2” value (GIRK1/4) is on record?
A: 51 ± 6.5 µM

Q: What about the “tone by which freezing was significantly reduced during extinction” value [1, 2] of the same compound?
A: 3 tone

Q: And the “extinction of fear memories versus vehicle (in words)” value [1, 3]?
A: significantly reduced overall freezing during extinction

Q: What about the “effect on consolidation of fear memories (in words)” value [1, 4] of the same compound?
A: affected consolidation of fear memories

Q: What does the source list for Cc1cc(NC(=O)Nc2ccc(Br)s2)n(-c2ccccc2)n1 [GAT1508, 1-(5-bromothiophen-2-yl)-3-(3-methyl-1-phenyl-1H-pyrazol-5-yl)urea]?
A: apparent affinity of GIRK1/4 channels for diC8-PIP2 (GIRK1/4): 46 ± 7.4 µM; effect on fear acquisition (in words) ([1]; 10 mg/kg): no significant effects; effect on fear consolidation (in words) ([1]; 10 mg/kg, FIG. 62B): no significant effects; effect on fear acquisition (in words) ([1]; 30 mg/kg, early pairings): significant reductions in fear acquisition; extinction of fear memories versus vehicle (in words) [1, 3]: extinguished fear memories much faster; effect on consolidation of fear memories (in words) [1, 4]: no effects; recall of the freezing behavior (in words) ([1]; FIG. 62E): No significant changes; tone by which freezing was significantly reduced during extinction ([1]; GAT1508 group, control group tone 7): 4 tone; fear extinction of the freezing behavior (in words) ([1]; follow-up experiments, FIGS. 62C-62D, 63): more efficient extinction of the freezing behavior

Q: With Cc1cc(NC(=O)Nc2ccc(F)c(F)c2)n(-c2ccccc2)n1 [ML297, reference compound] as the compound, how does the “EMAX of diC8-PIP2 response (NPo), GIRK1/4” value (GIRK1/4; control 4.4±0.2) read?
A: 5.4±0.2

Q: And the “apparent affinity of GIRK1/4 channels for diC8-PIP2” value (GIRK1/4)?
A: 17.4 ± 2 µM

Q: And the “effect on consolidation of fear memories (in words)” value ([1]; 30 mg/kg, FIG. 29)?
A: no effect

Q: And the “extinction of fear memories versus controls (in words)” value ([1]; 30 mg/kg, FIG. 29)?
A: no significant differences

Q: What about the “tone by which freezing was significantly reduced during extinction” value [1, 2] of the same compound?
A: 6 tone
